Laboratory results reported in patent US20110262365A1 (priority 2008, published 2011).

Test system: skin of the subject
Assay: Intradermal skin test for hypersensitivity to female reproductive hormones, case reports
Format: in vivo, human
Conditions: for Skin test result, Case 6 / Skin test result, Case 5 / Skin test result, Case 4 / Skin test result, Case 1 / Skin test result, Case 7: person; for Skin test result, Case 6: menopausal syndrome; for Skin test result, Case 6 / Skin test result, Case 7: severe hot flashes; for Skin test result, Case 5: premenopausal syndrome, severe hot flashes and night sweats; for Skin test result, Case 4: recurrent habitual abortions and severe PMS; for Skin test result, Case 1: severe premenstrual headaches, insomnia, acne; for Skin test result, Case 2: person one; for Skin test result, Case 7: menopause
Method: The skin test included the use of three fractions of estrogen (E1, E2 and E3) and progesterone (P), along with suitable controls. Each hormone solution was intradermally administered at a volume of 20-160 μl.
Skin test method using estriol, estrone, estradiol and/or progesterone and monitoring the immediate, late and delayed immuno-reaction to the injected hormones
1. The hormones (Table 1) diluted in solvents (Table 2) and controls (Table 3) in the above described dosages were administered intradermally into subjects.
2. Timing of intradermal administration and evaluation of the skin reaction was dependent on the tested subject.
(i) In case of fertile woman: Intradermal administration of the hormones/controls initiated at the luteal phase of menstrual cycle;
Tracking (evaluation of skin reaction) was after 20 minutes, after 48 hours and daily during the next 30 day (or a complete menstrual cycle).
(ii) Other Cases (non-fertile subjects): Intradermal administration of the hormones/controls initiated at any time;
Tracking (evaluation of skin reaction) was after 20 minutes, after 48 hours and daily during the next 7 day.
3. Measurement of wheal diameter—The wheal is formed on the skin in response to the intradermal administration of the hormone. Since the wheal responses are rarely regular or circular the wheal diameter is calculated using the following formula I.
wheal diameter=(D+d)/2 Formula I: […]
where D is the maximum diameter and d is perpendicular diameter.
4. Comparison with the controls was as follows:
(i) In case of a negative reaction to histamine (wheal diameter smaller than 5 mm), the result indicates Familial Dysautonomia disease (the subject is advised to seek other treatment);
(ii) In case of a positive reaction to saline (wheal diameter equals or larger than 5 mm), the test should be repeated;
(iv) In case of a similar or smaller reaction (wheal diameter) as compared to solvent reaction, there is no sensitivity to the tested hormone and desensitization is optional;
(v) Exception—In case the skin reaction (wheal diameter) is larger than 20 mm, the subject should not be treated and is referred to testing of cancer, systemic auto-immune diseases and other serous diseases.
Following is a description of several cases of subjects which were diagnosed and treated according to the method of some embodiments of the invention. The concentrations of hormones used in the description of the following cases 1-7 and in Table 9 below were as follow:
E1 (Estrone)—3 mM (millimole/Liter); 0.811 grams/liter;
E2 —(estradiol)—1 mM (millimole/Liter); 0.3565 grams/liter;
E3 (estriol)—3 mM (millimole/Liter); 0.86514 grams/liter;
P (progesterone)—1 mM (millimole/Liter); 0.3144 grams/liter;

[1] = habitual abortions and severe PMS

Molecule | Skin test result, Case 6 | Skin test result, Case 5 | Skin test result, Case 4 | Skin test result, Case 1 (BMI=31) | Skin test result, Case 2 [1] | Skin test result, Case 7 | Skin test result, Case 1 (BMI=31, listed as Progesterone) | Skin test result, Case 3 (person two, habitual abortions and severe PMS)
C[C@]12CC[C@@H]3c4ccc(O)cc4CC[C@H]3[C@@H]1C[C@@H](O)[C@@H]2O [estriol, Estriol] | Hypersensitivity (delayed type after 48 hours and 5 days) | delayed-type hypersensitivity reaction (after 48 hours) | delayed-type hypersensitivity reaction | delayed-type hypersensitivity reaction | – | – | – | –
CC(=O)[C@H]1CC[C@H]2[C@@H]3CCC4=CC(=O)CC[C@]4(C)[C@H]3CC[C@]12C [progesterone, Progesterone] | – | delayed-type hypersensitivity reaction (after 48 hours) | delayed-type hypersensitivity reaction | – | positive delayed-type hypersensitivity reaction | delayed-type (after 48 hours and 6 days) hypersensitivity reaction | delayed-type hypersensitivity reaction to estriol and estradiol, higher than to Progesterone | –
17 beta Estradiol Valerate | Hypersensitivity (delayed type after 48 hours and 5 days) | – | delayed-type hypersensitivity reaction | delayed-type hypersensitivity reaction | positive delayed-type hypersensitivity reaction | delayed-type (after 48 hours and 6 days) hypersensitivity reaction | – | delayed-type hypersensitivity reaction
